{
  "source": "paper PMC7719162",
  "about": "“Positioning of an unprecedented spiro[5.5]undeca ring system into kinase inhibitor space” (Scientific Reports, 2020)",
  "key": {"Haspin [1]": {"target": "T1, Haspin (Homo sapiens, UniProt Q8TF76)", "T1 construct": "purchased Reaction Biology Corp", "T1 sequence (Q8TF76 1-798)": "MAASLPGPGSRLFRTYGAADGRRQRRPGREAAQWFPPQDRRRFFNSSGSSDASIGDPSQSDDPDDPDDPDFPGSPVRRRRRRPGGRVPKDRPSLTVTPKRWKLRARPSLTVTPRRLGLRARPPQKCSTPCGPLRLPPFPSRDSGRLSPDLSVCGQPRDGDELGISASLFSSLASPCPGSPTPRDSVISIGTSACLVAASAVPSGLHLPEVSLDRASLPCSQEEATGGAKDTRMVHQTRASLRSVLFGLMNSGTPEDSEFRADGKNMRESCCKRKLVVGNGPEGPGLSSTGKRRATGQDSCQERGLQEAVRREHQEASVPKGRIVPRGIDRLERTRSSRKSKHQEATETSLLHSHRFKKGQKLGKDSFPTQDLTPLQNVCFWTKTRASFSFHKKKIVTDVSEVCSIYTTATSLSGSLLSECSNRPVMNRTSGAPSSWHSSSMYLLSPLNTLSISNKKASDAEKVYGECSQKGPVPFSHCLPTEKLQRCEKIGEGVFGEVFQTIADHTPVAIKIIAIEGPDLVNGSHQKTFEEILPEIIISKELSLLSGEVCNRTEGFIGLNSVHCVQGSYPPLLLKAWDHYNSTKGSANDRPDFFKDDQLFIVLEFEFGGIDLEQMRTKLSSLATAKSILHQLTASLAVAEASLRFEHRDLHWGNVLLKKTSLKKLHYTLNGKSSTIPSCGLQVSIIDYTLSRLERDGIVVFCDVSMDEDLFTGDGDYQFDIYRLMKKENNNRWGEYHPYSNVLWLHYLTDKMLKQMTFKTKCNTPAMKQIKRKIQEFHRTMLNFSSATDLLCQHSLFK", "assay": "Kinase panel assay (radiolabelled)", "format": "biochemical", "settings": "ATP 10 μM"}, "PI3Kd (p110d/p85a)": {"target": "T2, PI3Kd (p110d/p85a) (Homo sapiens, UniProt O00329)", "T2 construct": "purchased Reaction Biology Corp", "T2 sequence (O00329 whole entry)": "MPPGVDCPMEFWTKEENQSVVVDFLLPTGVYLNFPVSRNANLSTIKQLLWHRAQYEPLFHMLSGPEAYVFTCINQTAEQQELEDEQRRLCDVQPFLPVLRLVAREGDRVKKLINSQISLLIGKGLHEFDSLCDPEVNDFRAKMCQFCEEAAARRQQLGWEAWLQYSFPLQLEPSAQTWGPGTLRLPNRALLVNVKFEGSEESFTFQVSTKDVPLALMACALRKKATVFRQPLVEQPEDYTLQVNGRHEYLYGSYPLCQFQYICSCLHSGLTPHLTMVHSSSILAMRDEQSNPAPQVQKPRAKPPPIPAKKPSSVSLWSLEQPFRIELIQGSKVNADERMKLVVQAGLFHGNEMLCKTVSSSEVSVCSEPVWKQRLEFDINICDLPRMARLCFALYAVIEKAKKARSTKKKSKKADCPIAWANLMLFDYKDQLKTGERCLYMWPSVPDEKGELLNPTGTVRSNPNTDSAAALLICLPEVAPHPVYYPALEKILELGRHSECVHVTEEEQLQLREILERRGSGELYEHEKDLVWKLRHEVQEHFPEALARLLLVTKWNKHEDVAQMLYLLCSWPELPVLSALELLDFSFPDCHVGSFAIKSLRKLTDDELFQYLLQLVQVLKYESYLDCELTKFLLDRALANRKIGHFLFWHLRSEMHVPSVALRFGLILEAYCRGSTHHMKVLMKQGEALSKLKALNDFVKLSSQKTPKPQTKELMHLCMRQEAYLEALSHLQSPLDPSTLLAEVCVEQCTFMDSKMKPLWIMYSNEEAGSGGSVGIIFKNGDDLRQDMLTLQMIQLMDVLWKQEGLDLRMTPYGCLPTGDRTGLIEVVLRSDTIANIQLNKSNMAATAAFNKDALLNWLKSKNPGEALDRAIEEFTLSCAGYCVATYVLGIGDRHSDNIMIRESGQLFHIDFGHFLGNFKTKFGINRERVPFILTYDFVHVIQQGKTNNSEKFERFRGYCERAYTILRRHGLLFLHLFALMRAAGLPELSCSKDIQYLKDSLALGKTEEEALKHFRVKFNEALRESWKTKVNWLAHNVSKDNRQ", "T2 sequence (P27986 whole entry partner)": "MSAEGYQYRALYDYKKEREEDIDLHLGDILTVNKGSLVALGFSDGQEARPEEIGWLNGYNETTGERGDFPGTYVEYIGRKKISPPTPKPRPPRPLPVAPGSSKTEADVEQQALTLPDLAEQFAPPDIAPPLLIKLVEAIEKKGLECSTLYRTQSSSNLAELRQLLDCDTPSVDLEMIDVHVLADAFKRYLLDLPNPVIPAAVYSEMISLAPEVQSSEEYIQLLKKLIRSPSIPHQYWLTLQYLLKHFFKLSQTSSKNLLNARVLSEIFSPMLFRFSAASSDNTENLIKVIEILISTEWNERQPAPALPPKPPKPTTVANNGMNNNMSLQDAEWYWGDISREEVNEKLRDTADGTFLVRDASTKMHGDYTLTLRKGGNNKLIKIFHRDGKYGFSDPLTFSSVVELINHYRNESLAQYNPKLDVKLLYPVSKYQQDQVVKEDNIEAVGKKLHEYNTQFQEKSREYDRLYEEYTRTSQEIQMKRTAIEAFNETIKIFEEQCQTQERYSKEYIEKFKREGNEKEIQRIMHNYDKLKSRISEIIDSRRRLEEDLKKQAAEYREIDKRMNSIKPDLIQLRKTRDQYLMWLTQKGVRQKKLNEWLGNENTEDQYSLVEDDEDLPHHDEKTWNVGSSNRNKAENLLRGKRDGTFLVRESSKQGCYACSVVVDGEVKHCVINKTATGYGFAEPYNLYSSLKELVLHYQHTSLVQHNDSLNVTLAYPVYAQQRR", "assay": "Kinase panel assay (lipid kinase)", "format": "biochemical", "settings": "30 μM compound, ATP 10 μM, duplicates Data 1/Data 2"}, "AMPK(A2/B2/G2) [2]": {"target": "T3, AMPK(A2/B2/G2) (Homo sapiens, UniProt P54646)", "T3 construct": "purchased Reaction Biology Corp", "assay": "Kinase panel assay (radiolabelled)", "format": "biochemical", "settings": "30 μM compound, ATP 10 μM; duplicates Data 1/Data 2"}, "AMPK(A2/B2/G2) [3]": {"target": "T4, AMPK(A2/B2/G2) (Homo sapiens, UniProt O43741+P54646+Q9UGJ0)", "T4 construct": "purchased Reaction Biology Corp", "assay": "Kinase panel assay (radiolabelled)", "format": "biochemical", "settings": "30 μM compound, ATP 10 μM; duplicates Data 1/Data 2; read-out: % Enzyme Activity (relative to DMSO controls)"}, "JNK2": {"target": "T5, JNK2 (Homo sapiens, UniProt P45984)", "T5 construct": "purchased Reaction Biology Corp", "T5 sequence (P45984 whole entry)": "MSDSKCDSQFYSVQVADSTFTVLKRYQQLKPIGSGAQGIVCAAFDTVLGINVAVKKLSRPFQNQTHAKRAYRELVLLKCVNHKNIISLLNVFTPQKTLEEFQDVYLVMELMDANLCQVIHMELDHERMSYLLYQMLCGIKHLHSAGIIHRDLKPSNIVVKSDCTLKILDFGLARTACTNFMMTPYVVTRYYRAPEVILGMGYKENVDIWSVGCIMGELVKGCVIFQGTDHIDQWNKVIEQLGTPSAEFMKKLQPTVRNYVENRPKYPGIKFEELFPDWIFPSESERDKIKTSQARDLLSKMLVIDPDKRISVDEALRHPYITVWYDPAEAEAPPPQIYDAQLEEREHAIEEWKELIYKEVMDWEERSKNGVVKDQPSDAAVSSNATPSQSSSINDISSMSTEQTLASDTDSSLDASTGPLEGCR", "assay": "Kinase panel assay (radiolabelled)", "format": "biochemical", "settings": "ATP 10 μM"}, "SPHK2": {"target": "T6, SPHK2 (Homo sapiens, UniProt Q9NRA0)", "T6 construct": "purchased Reaction Biology Corp", "T6 sequence (Q9NRA0 whole entry)": "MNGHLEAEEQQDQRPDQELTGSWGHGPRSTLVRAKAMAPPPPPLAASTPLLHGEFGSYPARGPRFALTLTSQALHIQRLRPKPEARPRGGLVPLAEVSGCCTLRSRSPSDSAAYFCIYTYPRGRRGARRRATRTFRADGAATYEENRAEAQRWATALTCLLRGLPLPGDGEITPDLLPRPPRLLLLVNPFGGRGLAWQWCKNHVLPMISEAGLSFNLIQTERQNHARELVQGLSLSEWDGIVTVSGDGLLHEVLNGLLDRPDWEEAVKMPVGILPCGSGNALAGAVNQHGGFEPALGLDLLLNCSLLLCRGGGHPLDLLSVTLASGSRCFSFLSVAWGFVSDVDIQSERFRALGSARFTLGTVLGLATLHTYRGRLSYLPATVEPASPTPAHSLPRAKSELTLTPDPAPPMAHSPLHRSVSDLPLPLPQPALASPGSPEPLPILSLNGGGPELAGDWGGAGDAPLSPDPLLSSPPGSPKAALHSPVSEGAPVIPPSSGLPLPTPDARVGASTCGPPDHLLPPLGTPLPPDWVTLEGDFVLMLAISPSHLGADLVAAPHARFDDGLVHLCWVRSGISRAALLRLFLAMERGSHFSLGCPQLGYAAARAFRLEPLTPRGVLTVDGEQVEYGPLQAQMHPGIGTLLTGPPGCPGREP", "assay": "Kinase panel assay (lipid kinase)", "format": "biochemical", "settings": "30 μM compound, ATP 10 μM, duplicates Data 1/Data 2"}, "AMPK(A2/B1/G1) [4]": {"target": "T7, AMPK(A2/B1/G1) (Homo sapiens, UniProt P54619+P54646+Q9Y478)", "T7 construct": "purchased Reaction Biology Corp", "assay": "Kinase panel assay (radiolabelled)", "format": "biochemical", "settings": "30 μM compound, ATP 10 μM; duplicates Data 1/Data 2; read-out: % Enzyme Activity (relative to DMSO controls)"}, "AMPK(A2/B1/G1) [5]": {"target": "T8, AMPK(A2/B1/G1) (Homo sapiens, UniProt P54646)", "T8 construct": "purchased Reaction Biology Corp", "assay": "Kinase panel assay (radiolabelled)", "format": "biochemical", "settings": "30 μM compound, ATP 10 μM; duplicates Data 1/Data 2"}, "iNOS": {"test_system": "iNOS", "assay": "Western blot of iNOS in LPS-induced BV-2 cells", "format": "cell-based, murine", "procedure": "Western blot analysis was performed to see the protein expression of the iNOS and COX-2 in the BV2 cells. BV2 cells were seeded in a 6 well plate at the density of 6 × 10^5 cells/well overnight and cells were treated as mentioned earlier in the cell treatment section and this time treatment was performed for 6 h only. After 6 h, cells were harvested and lysed with lysis buffer containing (RIPA, protease inhibitor & phosphatase inhibitor), protein estimation was performed using biorad assay and the 30 µg of total protein was separated by 8% SDS-PAGE gel electrophoresis, transferred to nitrocellulose membranes, and incubated with primary antibodies against tubulin, iNOS, COX-2, and α-tubulin. […] membranes were incubated with horseradish peroxidase-conjugated secondary antibodies, and protein bands were visualized using ECL Western Blotting Detection Reagents (Amersham Pharmacia Biotech). Quantitative analysis of the protein bands was quantified using Image Master 2D Elite software (version 3.1, Amersham Pharmacia Biotech)."}, "TRKB": {"target": "T9, TRKB (Homo sapiens, UniProt Q16620)", "T9 construct": "purchased Reaction Biology Corp", "T9 sequence (Q16620 32-822)": "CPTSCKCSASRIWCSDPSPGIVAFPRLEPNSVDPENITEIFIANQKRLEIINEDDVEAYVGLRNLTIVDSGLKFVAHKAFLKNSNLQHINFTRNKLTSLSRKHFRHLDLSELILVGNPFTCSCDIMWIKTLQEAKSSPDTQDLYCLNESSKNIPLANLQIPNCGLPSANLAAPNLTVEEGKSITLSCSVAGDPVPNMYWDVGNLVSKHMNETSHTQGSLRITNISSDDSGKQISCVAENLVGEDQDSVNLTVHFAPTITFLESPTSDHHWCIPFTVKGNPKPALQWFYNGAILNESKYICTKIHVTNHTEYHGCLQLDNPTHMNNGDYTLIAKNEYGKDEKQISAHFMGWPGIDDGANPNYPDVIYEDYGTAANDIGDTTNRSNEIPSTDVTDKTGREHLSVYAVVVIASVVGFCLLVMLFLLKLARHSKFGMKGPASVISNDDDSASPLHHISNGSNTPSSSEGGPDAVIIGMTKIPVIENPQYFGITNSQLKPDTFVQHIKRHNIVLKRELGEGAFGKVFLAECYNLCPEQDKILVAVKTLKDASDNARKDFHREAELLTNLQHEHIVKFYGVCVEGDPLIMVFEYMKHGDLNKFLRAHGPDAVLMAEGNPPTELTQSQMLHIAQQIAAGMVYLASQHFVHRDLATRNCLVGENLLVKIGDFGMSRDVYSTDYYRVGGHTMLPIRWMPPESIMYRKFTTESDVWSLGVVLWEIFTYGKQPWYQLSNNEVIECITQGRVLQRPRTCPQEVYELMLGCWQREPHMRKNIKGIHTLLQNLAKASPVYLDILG", "assay": "Kinase panel assay (radiolabelled)", "format": "biochemical", "settings": "ATP 10 μM"}, "ROCK1": {"target": "T10, ROCK1 (Homo sapiens, UniProt Q13464)", "T10 construct": "purchased Reaction Biology Corp", "T10 sequence (Q13464 whole entry)": "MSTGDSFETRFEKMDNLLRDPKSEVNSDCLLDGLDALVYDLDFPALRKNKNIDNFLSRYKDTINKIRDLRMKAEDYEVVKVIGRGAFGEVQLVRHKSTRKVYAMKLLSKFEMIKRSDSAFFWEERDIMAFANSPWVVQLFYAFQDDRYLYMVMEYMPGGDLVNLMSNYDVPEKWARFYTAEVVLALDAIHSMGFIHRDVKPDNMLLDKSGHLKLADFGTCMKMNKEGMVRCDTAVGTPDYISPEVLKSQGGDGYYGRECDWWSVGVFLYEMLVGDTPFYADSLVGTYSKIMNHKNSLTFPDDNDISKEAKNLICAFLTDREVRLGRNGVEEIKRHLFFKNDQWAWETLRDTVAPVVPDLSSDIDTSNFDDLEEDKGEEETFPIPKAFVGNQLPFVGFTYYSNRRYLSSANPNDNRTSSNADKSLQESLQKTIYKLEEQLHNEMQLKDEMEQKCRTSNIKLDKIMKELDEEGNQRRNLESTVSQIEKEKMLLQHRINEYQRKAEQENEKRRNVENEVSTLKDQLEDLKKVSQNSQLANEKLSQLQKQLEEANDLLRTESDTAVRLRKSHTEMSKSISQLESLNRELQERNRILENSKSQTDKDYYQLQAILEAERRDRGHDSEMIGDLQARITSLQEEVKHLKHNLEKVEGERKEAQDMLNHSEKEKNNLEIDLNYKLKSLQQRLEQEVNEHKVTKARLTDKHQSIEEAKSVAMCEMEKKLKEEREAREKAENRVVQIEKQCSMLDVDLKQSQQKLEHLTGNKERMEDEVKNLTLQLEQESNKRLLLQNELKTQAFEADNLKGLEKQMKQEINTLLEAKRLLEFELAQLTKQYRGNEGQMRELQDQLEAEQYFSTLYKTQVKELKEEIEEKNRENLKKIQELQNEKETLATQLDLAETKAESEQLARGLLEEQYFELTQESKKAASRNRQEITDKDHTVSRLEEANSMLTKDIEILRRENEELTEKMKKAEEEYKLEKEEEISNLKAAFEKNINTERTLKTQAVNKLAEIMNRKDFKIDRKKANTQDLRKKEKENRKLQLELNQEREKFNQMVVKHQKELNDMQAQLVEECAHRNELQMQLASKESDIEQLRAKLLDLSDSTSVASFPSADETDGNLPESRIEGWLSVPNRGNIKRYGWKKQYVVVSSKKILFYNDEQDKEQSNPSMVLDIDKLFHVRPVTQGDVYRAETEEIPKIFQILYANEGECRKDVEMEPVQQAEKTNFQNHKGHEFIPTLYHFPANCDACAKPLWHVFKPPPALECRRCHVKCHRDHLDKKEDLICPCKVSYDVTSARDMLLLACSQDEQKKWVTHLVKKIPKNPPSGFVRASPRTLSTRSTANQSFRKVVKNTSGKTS", "assay": "Kinase panel assay (radiolabelled)", "format": "biochemical", "settings": "ATP 10 μM"}, "PI3KC2A": {"target": "T11, PI3KC2A (Homo sapiens, UniProt O00443)", "T11 construct": "purchased Reaction Biology Corp", "assay": "Kinase panel assay (lipid kinase)", "format": "biochemical", "settings": "30 μM compound, ATP 10 μM, duplicates Data 1/Data 2", "procedure": "(§1) Every inhibitory activity of tested compounds was measured by radiolabelled method of Reaction Biology Corp). The radiolabelled ATP ([γ-^33P] ATP) replaced a substrate with ^33P-phosphorylated substrate so that the activity of a kinase was measured from the radiolabelled phosphorylated substrate. Kinase panel assay was tested at 30 μM testing compounds with an ATP concentration of 10 μM and a substrate concentration of 10 μM. % Residual activity against GSK3β was measured at 10 uM compounds 1 and 2. […] Curve fits of control compounds were performed where the enzyme activities at the highest concentration of compounds were less than 65%. The concentration of DMSO was controlled and raw data, % kinase activity was calculated relative to DMSO controls."}, "PIP5K1A": {"target": "T12, PIP5K1A (Homo sapiens, UniProt Q99755)", "T12 construct": "purchased Reaction Biology Corp", "assay": "Kinase panel assay (lipid kinase)", "format": "biochemical", "settings": "30 μM compound, ATP 10 μM, duplicates Data 1/Data 2", "procedure": "as §1"}, "PIP5K1C": {"target": "T13, PIP5K1C (Homo sapiens, UniProt O60331)", "T13 construct": "purchased Reaction Biology Corp", "assay": "Kinase panel assay (lipid kinase)", "format": "biochemical", "settings": "30 μM compound, ATP 10 μM, duplicates Data 1/Data 2", "procedure": "as §1"}, "PI3KC3": {"target": "T14, PI3KC3 (Homo sapiens, UniProt Q8NEB9)", "T14 construct": "purchased Reaction Biology Corp", "assay": "Kinase panel assay (lipid kinase)", "format": "biochemical", "settings": "30 μM compound, ATP 10 μM, duplicates Data 1/Data 2", "procedure": "as §1"}, "Haspin [6]": {"target": "T1, Haspin", "settings": "cited from earlier work"}, "CDK3/cyclin E": {"target": "T15, CDK3/cyclin E (Homo sapiens, UniProt Q00526)", "T15 construct": "purchased Reaction Biology Corp", "settings": "cited from earlier work"}, "JNK1": {"target": "T16, JNK1 (Homo sapiens, UniProt P45983)", "T16 construct": "purchased Reaction Biology Corp", "settings": "cited from earlier work"}, "CDK1/cyclin B": {"target": "T17, CDK1/cyclin B (Homo sapiens, UniProt P06493)", "T17 construct": "purchased Reaction Biology Corp", "settings": "cited from earlier work"}, "[7]": {"settings": "30 μM compound, duplicates Data 1/Data 2"}, "[8]": {"settings": "30 μM compound, duplicates Data 1/Data 2, read-out: % Enzyme Activity (relative to DMSO controls)"}, "[9]": {"settings": "30 μM, average ± SD, read-out: % Residual Activity at 30 μM"}, "[10]": {"settings": "read-out: % Enzyme Activity (relative to DMSO controls)"}},
  "note": "Where two headings read alike, the source gives them in different places.",
  "data": [
    {"smiles": "O=C1C=CC2(C=C1)OCC(Cc1cn(-c3cccc(Cl)c3)nn1)C(=O)N2c1ccccc1", "note": "(stereo not shown) [2d, 3-((1-(3-Chlorophenyl)-1H-1,2,3-triazol-4-yl)methyl)-5-phenyl-1-oxa-5-azaspiro[5.5]undeca-7,10-diene-4,9-dione]", "values": [
      {"measurement": "% Enzyme Activity (relative to DMSO controls)", "setting": "Haspin [1]; [7]", "value": 70.31, "unit": "%"},
      {"measurement": "remaining activity at 30 µM", "setting": "Haspin [1]; [8]", "value": 71.6, "unit": "%"},
      {"measurement": "remaining activity at 30 µM", "setting": "Haspin [1]; [9]", "value": "70.9 ± 0.9", "unit": "%"},
      {"measurement": "% Enzyme Activity (relative to DMSO controls)", "setting": "PI3Kd (p110d/p85a)", "value": 108.46, "unit": "%"},
      {"measurement": "remaining activity at 30 µM", "setting": "PI3Kd (p110d/p85a); [10]", "value": 109, "unit": "%"},
      {"measurement": "% Enzyme Activity (relative to DMSO controls)", "setting": "AMPK(A2/B2/G2) [2]", "value": 111.36, "unit": "%"},
      {"measurement": "remaining activity at 30 µM", "setting": "AMPK(A2/B2/G2) [3]", "value": 114, "unit": "%"},
      {"measurement": "% Enzyme Activity (relative to DMSO controls)", "setting": "JNK2; [7]", "value": 79.67, "unit": "%"},
      {"measurement": "remaining activity at 30 µM", "setting": "JNK2; [8]", "value": 80.3, "unit": "%"},
      {"measurement": "remaining activity at 30 µM", "setting": "JNK2; [9]", "value": "80 ± 0.4", "unit": "%"},
      {"measurement": "% Enzyme Activity (relative to DMSO controls)", "setting": "SPHK2", "value": 90.95, "unit": "%"},
      {"measurement": "remaining activity at 30 µM", "setting": "SPHK2; [10]", "value": 91.5, "unit": "%"},
      {"measurement": "remaining activity at 30 µM", "setting": "AMPK(A2/B1/G1) [4]", "value": 50.8, "unit": "%"},
      {"measurement": "% Enzyme Activity (relative to DMSO controls)", "setting": "AMPK(A2/B1/G1) [5]", "value": 47.50, "unit": "%"},
      {"measurement": "iNOS expression level", "setting": "iNOS; 0.01 to 1 uM, LPS-induced BV-2 cells", "value": "downregulated iNOS and COX-2 more efficiently than compound 2a"},
      {"measurement": "potency relative to L-NMMA", "setting": "iNOS; regulation of iNOS and COX-2, LPS-induced BV-2 cells", "value": 20, "unit": "fold"},
      {"measurement": "% Enzyme Activity (relative to DMSO controls)", "setting": "TRKB; [7]", "value": 101.29, "unit": "%"},
      {"measurement": "remaining activity at 30 µM", "setting": "TRKB; [8]", "value": 103, "unit": "%"},
      {"measurement": "remaining activity at 30 µM", "setting": "TRKB; [9]", "value": "102 ± 1.3", "unit": "%"},
      {"measurement": "% Enzyme Activity (relative to DMSO controls)", "setting": "ROCK1; [7]", "value": 101.05, "unit": "%"},
      {"measurement": "remaining activity at 30 µM", "setting": "ROCK1; [8]", "value": 105, "unit": "%"},
      {"measurement": "remaining activity at 30 µM", "setting": "ROCK1; [9]", "value": "103 ± 3.1", "unit": "%"},
      {"measurement": "% Enzyme Activity (relative to DMSO controls)", "setting": "PI3KC2A", "value": 123.51, "unit": "%"},
      {"measurement": "remaining activity at 30 µM", "setting": "PI3KC2A; [10]", "value": 122, "unit": "%"},
      {"measurement": "% Enzyme Activity (relative to DMSO controls)", "setting": "PIP5K1A", "value": 84.84, "unit": "%"},
      {"measurement": "remaining activity at 30 µM", "setting": "PIP5K1A; [10]", "value": 86, "unit": "%"},
      {"measurement": "% Enzyme Activity (relative to DMSO controls)", "setting": "PIP5K1C", "value": 87.90, "unit": "%"},
      {"measurement": "remaining activity at 30 µM", "setting": "PIP5K1C; [10]", "value": 88.2, "unit": "%"},
      {"measurement": "% Enzyme Activity (relative to DMSO controls)", "setting": "PI3KC3", "value": 98.59, "unit": "%"},
      {"measurement": "remaining activity at 30 µM", "setting": "PI3KC3; [10]", "value": 99.8, "unit": "%"}
    ]},
    {"smiles": "O=C1C=CC2(C=C1)OCC(Cc1cc(C(F)(F)F)cc(C(F)(F)F)c1)C(=O)N2c1ccccc1", "note": "(racemic) [1c]", "values": [
      {"measurement": "% Residual Activity at 30 μM", "setting": "Haspin [6]", "value": "66.4 ± 0.5", "unit": "%"},
      {"measurement": "% Residual Activity at 30 μM", "setting": "CDK3/cyclin E", "value": "59.3 ± 1.2", "unit": "%"},
      {"measurement": "% Residual Activity at 30 μM", "setting": "JNK1", "value": "35.8 ± 0.3", "unit": "%"},
      {"measurement": "% Residual Activity at 30 μM", "setting": "CDK1/cyclin B", "value": "46.0 ± 0.8", "unit": "%"}
    ]}
  ]
}
